Results reported in patent US20240209028A1, “CNP COMPOUNDS” (priority 2022, published 2024).
Values after ≈ are worked out from the molar mass of the structure shown. Starred links: 1 amine or outer side, 2 acyl side, 3 side chain; linkers in the order of their positions; H or OH if unused. Positions of bridges follow the written chain, without caps; N, C: chain ends. Residues, ends and D or L forms follow the SMILES beside them. *: point of attachment. C18 diacid = O=C(O)CCCCCCCCCCCCCCCCC(=O)*; γGlu = O=C(O)[C@H](CCC(=O)[*:2])N[*:1]; AEEA = NCCOCCOCC(=O)O

Key:
[1] = CNP local tolerance study in LYD pigs (s.c. injection, histopathology); assay type: in vivo, domestic LYD pig
Description: The purpose of this study was to evaluate the local tissue reaction response to subcutaneous injection of CNP compounds in pigs.
Procedure: In domestic pigs, the injection site was subjected to histopathologic examination after subcutaneous dosing. Injections were placed mid-back between the shoulder and hip on both sides of the dorsal midline, and one or two days before injection sites of 2×2 cm were shaved and marked by permanent ink under light anaesthesia. Each injection consisted of 100 or 200 μl formulation with a concentration of approx. 4400 μM. CNP compound formulations were prepared according to the principles in General Methods of Preparation—Method G, and were either A) 8 mM sodium phosphate, 250 mM glycerol, pH 6.5, B) 5 mM sodium acetate, 250 mM glycerol, pH 4.0 or C) 5 mM sodium acetate, 240 mM propylene glycol, pH 4.0 and physiological saline was included as negative control.
On Day 1 the pigs were lightly anaesthetised. An insulin pen (NovoPen 4) and insulin needle (NovoTwist 32G/5 mm) were used for accurate deposition of the CNP formulations in the subcutaneous fat tissue with the needle perpendicular to the skin. On Day 5 (4 days post injection) or 6 (5 days post injection), the pigs were euthanised, and the injection sites were removed and fixed in 4% phosphate buffered neutral formaldehyde in sealed plastic containers. The tissue blocks were prefixed for 2-4 hours in 10% buffered formalin, cut into 2 mm thick slabs with a multi knife, examined for macroscopic changes and finally fixed overnight in cassettes. Two slabs of tissue were selected for light microscopic evaluation where the tissue reaction was maximal or alternatively in the central part of the injection site. Three to four 2-4 μm sections were cut from three levels at 100 μm distance, stained with haematoxylin and eosin (H&E) and evaluated in a light microscope. Histopathological changes were graded on a 5-level scale ((Minimal (Min), Mild (Mil), Moderate (Mod), Marked (Mar) and Severe (Sev)). The studies are summarised in Table 18.
Results: The results are summarised in Table 19. * Necrosis was used as a marker for local subcutaneous reactions; **NAD: No Abnormalities Detected

[2] = target: T1, human natriuretic peptide receptor 2 (hNPR2) (Homo sapiens, UniProt P20594); assay: In vitro hNPR2 activity assay (cGMP GloSensor reporter, HEK293); assay type: cell-based; conditions: for hNPR2 0% HSA. [EC50% rel CNP]: potency relative to CNP22 (0065)
T1 construct: expressed in transfected cells; host or cells: HEK293 (ATCC CRL-1573), clone 35, co-transfected with pGloSensor-42F
T1 sequence (P20594 23-1047): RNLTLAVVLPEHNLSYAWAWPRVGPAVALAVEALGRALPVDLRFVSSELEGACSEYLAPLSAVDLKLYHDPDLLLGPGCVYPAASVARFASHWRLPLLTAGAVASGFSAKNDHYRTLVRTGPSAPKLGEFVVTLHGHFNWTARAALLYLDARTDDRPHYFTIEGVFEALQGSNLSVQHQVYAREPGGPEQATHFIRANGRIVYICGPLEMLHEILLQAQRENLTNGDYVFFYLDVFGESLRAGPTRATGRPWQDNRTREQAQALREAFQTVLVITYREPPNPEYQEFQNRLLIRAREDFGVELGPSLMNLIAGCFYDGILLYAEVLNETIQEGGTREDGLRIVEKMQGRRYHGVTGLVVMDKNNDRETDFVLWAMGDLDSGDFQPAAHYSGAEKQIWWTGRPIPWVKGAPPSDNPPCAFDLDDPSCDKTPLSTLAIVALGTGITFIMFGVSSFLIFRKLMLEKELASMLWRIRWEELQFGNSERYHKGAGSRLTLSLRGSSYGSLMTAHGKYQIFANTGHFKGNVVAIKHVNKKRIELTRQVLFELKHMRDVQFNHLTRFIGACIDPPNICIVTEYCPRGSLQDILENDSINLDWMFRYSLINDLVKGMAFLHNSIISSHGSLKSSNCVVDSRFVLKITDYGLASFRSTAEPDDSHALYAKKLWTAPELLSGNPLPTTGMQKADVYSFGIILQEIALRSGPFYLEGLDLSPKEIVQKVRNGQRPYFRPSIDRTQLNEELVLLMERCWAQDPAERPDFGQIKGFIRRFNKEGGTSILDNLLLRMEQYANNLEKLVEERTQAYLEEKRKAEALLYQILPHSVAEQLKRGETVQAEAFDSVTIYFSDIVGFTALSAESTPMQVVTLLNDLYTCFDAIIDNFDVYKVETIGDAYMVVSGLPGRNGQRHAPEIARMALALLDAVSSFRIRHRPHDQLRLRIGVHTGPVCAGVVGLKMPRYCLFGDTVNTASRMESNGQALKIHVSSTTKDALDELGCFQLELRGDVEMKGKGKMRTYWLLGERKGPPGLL
Summary of the method: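 Potency is the EC50 from a four-parameter logistic fit, also expressed relative to the in-plate CNP22 control (×100), with at least two replicates. Compounds (ten concentrations, […], HSA-free diluent with 1% OVA, 0.01% Tween20) were incubated 30 min at 37 °C on HEK293 cells co-expressing hNPR2 and a GloSensor cGMP luciferase. Luminescence detected with Bright-Glo.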

[3] = Solubility of CNP compounds at pH 4.0 and pH 6.5; assay type: physicochemical; conditions: 8 mM sodium phosphate, 23 mg/mL glycerol, pH 6.5, room temperature; read-out: Solubility at pH 6.5
Description: In order to assess the suitability of CNP compounds for a soluble liquid formulation, the solubility of CNP compounds in pharmaceutically relevant buffers were measured. Solubility at two different pH-levels (pH 4.0 and pH 6.5) was examined as pH is expected to affect solubility.
Preparation of pH 4.0 samples: The pH 4.0 samples of the CNP compounds were prepared by mixing freeze dried peptide with a pH 4.0 5 mM sodium acetate, 250 mM glycerol buffer at room temperature to a nominal concentration of at least 4000-5000 nmol/mL. The pH of the samples was measured and adjusted to pH 4.0 and the samples were allowed to equilibrate at room temperature until next day if not fully dissolved.
Preparation of pH 6.5 samples: The pH 6.5 samples of the CNP compounds were prepared by dissolving the freeze dried peptide in water. While stirring, a part of the peptide solution was transferred to a buffer consisting of 41 mM sodium phosphate and 118 mg/mL glycerol, pH 7.5-8.0, followed by addition of diluted sodium hydroxide followed by another part of the peptide solution and further addition of diluted sodium hydroxide. This procedure was repeated until all of the peptide solution had been added where a nominal concentration of at least 4000-5000 nmol/mL had been reached and the buffer composition was 8 mM sodium phosphate, 23 mg/mL glycerol. The pH of the samples were measured and adjusted to pH 6.5 and the samples were allowed to equilibrate at room temperature until next day if not fully dissolved.
Procedure: Samples at pH 4.0 were prepared as described above and the compound concentration in the supernatant was determined using CAD (Method F, CAD02).
Samples at pH 6.5 were prepared as described above and peptide concentration in the supernatant was determined by CAD (Method F, CAD02).

| SMILES | injection site reactions ([1]; subcutaneous injections in the pig) | EC50 ([2]; 0% HSA, HEK293-hNPR2/GloSensor cells) | hNPR2 0% HSA. [EC50% rel CNP] [2] | Number of injections by severity of necrosis: NAD ([1]; LYD pig, s.c., approx. 4400 μM, 4 or 5 days after injection) | solubility [3] |
| --- | --- | --- | --- | --- | --- |
| CC[C@H](C)[C@@H]1NC(=O)[C@H](CCCNC(=N)N)NC(=O)[C@H](CC(=O)O)NC(=O)[C@H](CC(C)C)NC(=O)[C@H](CCCCN)NC(=O)[C@H](CC(C)C)NC(=O)CNC(=O)[C@H](Cc2ccccc2)NC(=O)[C@@H](NC(=O)CNC(=O)[C@H](CCCCN)NC(=O)[C@H](CO)NC(=O)[C@H](CC(C)C)NC(=O)CNC(=O)[C@H](CCCCN)NC(=O)[C@H](CCCCN)NC(=O)[C@H](CC(N)=O)NC(=O)[C@H](C)NC(=O)CNC(=O)[C@H](CCCCN)NC(=O)[C@H](Cc2ccc(O)cc2)NC(=O)[C@H](CCCCN)NC(=O)[C@H](CCCNC(=N)N)NC(=O)[C@H](C)NC(=O)[C@H](CC(N)=O)NC(=O)[C@@H]2CCCN2C(=O)[C@H](Cc2c[nH]cn2)NC(=O)[C@H](CCC(=O)O)NC(=O)[C@H](CCC(N)=O)NC(=O)CNC(=O)[C@@H]2CCCN2)CSSC[C@@H](C(=O)O)NC(=O)CNC(=O)[C@H](CC(C)C)NC(=O)CNC(=O)[C@H](CO)NC(=O)[C@H](CCSC)NC(=O)[C@H](CO)NC(=O)CNC1=O [compound 0106] | no observable injection site reactions | 0.18 nM | 201.1% |  |  |
| CC[C@H](C)[C@@H]1NC(=O)[C@H](CCCNC(=N)N)NC(=O)[C@H](CC(=O)O)NC(=O)[C@H](CC(C)C)NC(=O)[C@H](CCCCN)NC(=O)[C@H](CC(C)C)NC(=O)CNC(=O)[C@H](Cc2ccccc2)NC(=O)[C@@H](NC(=O)CNC(=O)[C@H](CCCCN)NC(=O)[C@H](CO)NC(=O)[C@H](CC(C)C)NC(=O)CNC(=O)[C@H](CCCCN)NC(=O)[C@H](CCCCN)NC(=O)[C@H](CC(N)=O)NC(=O)[C@H](C)NC(=O)CNC(=O)[C@H](CCCCN)NC(=O)[C@H](Cc2ccc(O)cc2)NC(=O)[C@H](CCCCN)NC(=O)[C@H](CCCNC(=N)N)NC(=O)[C@H](C)NC(=O)[C@H](CC(N)=O)NC(=O)[C@@H]2CCCN2C(=O)[C@H](Cc2c[nH]cn2)NC(=O)[C@H](CCC(=O)O)NC(=O)[C@H](CCC(N)=O)NC(=O)CNC(=O)[C@@H]2CCCN2)CSSC[C@@H](C(=O)O)NC(=O)CNC(=O)[C@H](CC(C)C)NC(=O)CNC(=O)[C@H](CO)NC(=O)[C@H](CCSC)NC(=O)[C@H](CO)NC(=O)CNC1=O [Compound 0106] |  |  |  | 4 |  |
| CC[C@H](C)[C@@H]1NC(=O)[C@H](CCCNC(=N)N)NC(=O)[C@H](CC(=O)O)NC(=O)[C@H](CC(C)C)NC(=O)[C@@H]2CCCN2C(=O)[C@H](CC(C)C)NC(=O)CNC(=O)[C@H](Cc2ccccc2)NC(=O)[C@@H](NC(=O)CNC(=O)[C@H](CO)NC(=O)[C@H](CO)NC(=O)[C@@H](NC(=O)CNC(=O)[C@@H](NC(=O)[C@H](Cc2c[nH]cn2)NC(=O)[C@H](CCC(N)=O)NC(=O)[C@H](C)NC(=O)CNC(=O)[C@H](Cc2c[nH]cn2)NC(=O)[C@H](Cc2ccc(O)cc2)NC(=O)[C@H](CCCCN)NC(=O)[C@H](CCCNC(=N)N)NC(=O)[C@H](C)NC(=O)COCCOCCNC(=O)COCCOCCNC(=O)CC[C@H](NC(=O)CC[C@H](NC(=O)CCCCCCCCCCCCCCCCC(=O)O)C(=O)O)C(=O)O)[C@@H](C)O)C(C)C)CSSC[C@@H](C(=O)O)NC(=O)CNC(=O)[C@H](CC(C)C)NC(=O)CNC(=O)[C@H](CO)NC(=O)[C@H](CC(C)C)NC(=O)[C@H](CO)NC(=O)CNC1=O [compound 1419] ({C18 diacid-γGlu-γGlu-AEEA-AEEA}-ARKYHGAQHTGVSSGCFGLPLDRIGSLSGLGC-OH; disulfide 16-32) |  |  | 37.2% |  | 318 µM (≈ 1300 µg/mL) |
| CC[C@H](C)[C@@H]1NC(=O)[C@H](CCCNC(=N)N)NC(=O)[C@H](CC(=O)O)NC(=O)[C@H](CC(C)C)NC(=O)[C@@H]2CCCN2C(=O)[C@H](CC(C)C)NC(=O)CNC(=O)[C@H](Cc2ccccc2)NC(=O)[C@@H](NC(=O)CNC(=O)[C@H](CO)NC(=O)[C@H](CO)NC(=O)[C@@H](NC(=O)CNC(=O)[C@@H](NC(=O)[C@H](CCCCN)NC(=O)[C@H](CCC(N)=O)NC(=O)[C@H](C)NC(=O)CNC(=O)[C@H](CCCCN)NC(=O)[C@H](Cc2ccc(O)cc2)NC(=O)[C@H](CCCCN)NC(=O)[C@H](CCCNC(=N)N)NC(=O)[C@H](C)NC(=O)COCCOCCNC(=O)COCCOCCNC(=O)CC[C@H](NC(=O)CC[C@H](NC(=O)CC[C@H](NC(=O)CCCCCCCCCCCCCCCCC(=O)O)C(=O)O)C(=O)O)C(=O)O)[C@@H](C)O)C(C)C)CSSC[C@@H](C(=O)O)NC(=O)CNC(=O)[C@H](CC(C)C)NC(=O)CNC(=O)[C@H](CO)NC(=O)[C@H](CC(C)C)NC(=O)[C@H](CO)NC(=O)CNC1=O [compound 1421] ({C18 diacid-γGlu-γGlu-γGlu-AEEA-AEEA}-ARKYKGAQKTGVSSGCFGLPLDRIGSLSGLGC-OH; disulfide 16-32) |  |  | 50.0% |  | 857 µM (≈ 3600 µg/mL) |
